# Reference: US20210113687A1, “METHODS FOR TREATING INFLAMMATION” (NEW YORK UNIVERSITY, priority 2013, published 2021)
# Assays:
# [1] = test system: human Netrin-1 promoter luciferase reporter construct; assay: Netrin-1 promoter-luciferase assay in HEK293T; assay type: cell-based; conditions: BAY 11-7082 20 μM pretreatment
# Protocol: Netrin-1 Promoter-Luciferase MMV HEK293T were transfected with a human Netrin-1 promoter luciferase reporter construct (SwitchGear Genomics) using Lipofectamine™ 2000 (Invitrogen). After transfection, media was changed and cells were pretreated with the NFKB inhibitor BAY 11-7082 (20 μM) for 1 hour prior stimulation with 100 μg/ml oxLDL or PBS as a control for 24 hours. Luciferase activity was assessed using the Dual-Glo Luciferase Assay System (Promega) and normalized to a constitutively expressed Renilla reporter.
# BMDM [2] = assay: netrin-1 ELISA of BMDM supernatants; assay type: cell-based, mouse; conditions: blocking NFkB
# Protocol: (§1) Cell culture. Primary bone marrow derived macrophage (BMDM) was prepared by flushing the bone marrow of the tibia and femur of 6-8 week old C57/B6 mice. The cells were grown in DMEM supplemented with 15% L929-conditioned media, 10% FBS and 1% penicillin/streptomycin for 7 days. BMDM were stimulated 250 pM palmitate conjugated with BSA or BSA as a control for 24 hours, or TNFα (10 ng/ml, 410-MT-010; R&D systems), IL-6 (40 nglml, 406-ML-005; R&D systems) and IL-4 (1 Onglml, 404-ML-010; R&D systems) for 24 h. In some assays, differentiated BMDM were treated with conditioned media from 3T3-L1 adipocytes differentiated as described (Lin, et al., J Biol Chem, 2005; 280:4617-4626) and treated with 250 pM palmitate conjugated with BSA or BSA for 24 hours. In certain experiments, anti-TNFα (0.4 μg/ml, AF-410-NA, R&D systems) or anti-IL-6 (0.025 μg/ml, MAB406; R&D systems) blocking antibody or IgG control (Normal Goat IgG: AB-108-C, Rat IgG1: MAB005; R&D systems) was added to conditioned media. […]
# ELISA assay. Insulin (90080; crystal Chem Inc), adiponectin (ab108785; Abeam), FFA (SFA-1; Zen Bio), TNFa (88-7064-76; ebiosciences) and netrin-1 (E91827Mu; USCN life science Inc) levels were measured in the serum using mouse standards according to manufacturer's guidelines. Netrin-1 in human serum was measured using a human-specific netrin-1 ELISA from USCN Life Science Inc (700176; mybiosource).
# [3] = test system: human Unc5H2 promoter-luciferase reporter; assay: Unc5H2 promoter-luciferase assay (Example 4); assay type: cell-based; conditions: pretreating with NFkB inhibitor
# Protocol: (§2) Promoter-Luciferase assays. HEK293T cells were transfected with human NTNI or Unc5H2 promoter-luciferase reporter constructs (SwitchGear Genomics) using Lipofectamine™ 2000 (11668-019, Invitrogen) After transfection, media was changed and cells were treated with palmitate or BSA for 24 hours, in the presence or absence of the NFkB inhibitor BAY 11-7082 (10 μmol/L). Luciferase activity was measured using the DUAL-Glo Luciferase Assay system (E1910, Promega).
# [4] = test system: human NTNI promoter-luciferase reporter; assay: NTN1 promoter-luciferase assay (Example 4); assay type: cell-based; conditions: pretreating with NFkB inhibitor
# Protocol: as §2
# [5] = test system: Human NTN1 promoter-luciferase reporter; assay: NTN1 promoter luciferase assay (Example 2); assay type: cell-based
# Protocol: (§3) Human NTN1 or UNC5B promoter-luciferase reporter plasmids (Switchgear Genomics) were transfected into HEK293T using Lipofectamine™ 2000 (11668-019, Invitrogen). After transfection, media was changed and cells were treated with oxLDL (50 μg/ml) or CoCl2 (0.1 mM), or DMOG (1 mmol/1) for 24 hours, in the presence or absence (PBS control) of inhibitors of NFκB (10 μmol/L Bay11-7082) or HIF1α (100 μmol/L HIF-1α inhibitor). Luciferase activity was measured using foe DUAL-Glo Luciferase Assay system (E1910, Promega) and normalized to a constitutively expressed renilla reporter or to protein concentration.
# [6] = test system: Human UNC5B promoter-luciferase reporter; assay: UNC5B promoter luciferase assay (Example 2); assay type: cell-based; conditions: treatment with HIF-1α inhibitor
# Protocol: as §3
# BMDMs [7] = assay: qPCR of macrophages under hypoxic stress; assay type: cell-based, mouse
# Protocol: Primary bone marrow derived macrophage (BMDM) were prepared by flushing the bone marrow of the tibia and femur of 6-8 week old C57/B6 mice as described (The cells were grown in DMEM supplemented with 15% L929-conditioned media, 10% FBS and 1% penicillin/streptomycin for 7 days and then treated with oxLDL or subjected to hypoxic conditions. Hypoxic incubations were carried out at 37° C. in a Billups-Rothenberg modular incubator chamber at 1% O2, 5% CO2 and 94% N2 for 24 hours. J774 control (J774con) and HIF-1α overexpressing (J774Hif) macrophages (Parathath et al., Circ. Res. 2011; 109:1141-1152) were grown in 5.5 mmol/L glucose containing DMEM supplemented with 15% FBS and 1% penicillin/streptomycin.
# Total RNA was isolated using TRIZOL reagent and RNA ([…]) was reverse transcribed with an iScript cDNA Synthesis kit according to the manufacturer's instructions (Bio-Rad). RT-PCR analysis was performed using iQ SYBR green Supermix (Biorad) and a Mastercycler Realplex (Eppendorf) as we described (van Gils et al., Nat Immunol, 2012; 13:136-143). The change in mRNA expression was calculated by the comparative change-in-cycle-method (DDCT) relative to GAPDH mRNA levels. The following primer sets were used;
# BMDMs [8] = assay: Apoptotic assays of growth-factor deprived BMDM (TUNEL, active caspase-3); assay type: cell-based, mouse
# Protocol: To induce apoptosis, BMDMs were grown in foe absence of L929 conditioned media (CM) for 3 days under normoxic or hypoxic conditions. In some assays, cells were treated with 100 μmol/L HIF-1α inhibitor or Unc5b-FC fragment or control IgG. After treatment, apoptotic cells were labeled with PE-active caspase-3 (557091, BD pharmingen) or by the TUNEL method using an in situ cell detection kit (Roche Diagnostics). Active Caspase-3, TUNEL and DAPI staining were analyzed with a Nikon Eclipse fluorescent microscope. Only TUNEL positive cells that colocalized with DAPI stained nuclei were considered apoptotic.
# [9] = test system: mouse peritoneal macrophages; assay: Migration assay of peritoneal macrophages (pMø); assay type: cell-based; conditions: for inhibitory effect of netrin-1 on CCL19-induced migration: macrophages pre-incubated with agent
# Protocol: Migration assays. Chemotaxis of macrophages (pMø, RAW264.7) and CaSMC was measured in 96-well Boyden chamber with a 5 μm (macrophages) or 8 μm pore size filter (CaSMC) (Neuro Probe) as previously described (Ly, et al., Proc Natl Acad Sci USA, 2005, 102: 14729-14734). Macrophage chemotaxis was also quantified using a Real-time Cell Invasion and Migration (RT-CIM)×Celligence assay system with monitoring every 5 min (Roche Applied Science). […] In some assays, cells were pretreated with netrin-1 or UNC5b blocking antibody (AF1006, R&D Systems) or Neogenin blocking antibody (Santa Cruz, sc-6537) or control goat IgG (Santa Cruz) for 1 hour prior to migration. Following cell migration for 3 or 16 hours (CaSMC and macrophages, respectively), four random high power fields from each well were counted to determine the number of cells that had migrated into the lower chamber. Migration was expressed as chemotactic index, which was calculated by dividing the number of migrating cells in the treated groups by the number of migrating cells in the lowest control well. Results of chemotaxis assays are representative of at least three independent experiments performed on triplicate samples.
# Rac1 = Rac1 activation assay; assay type: cell-based, mouse; conditions: MCP-1 stimulation, within 5 minutes
# Protocol: Rac1 activation assays Peritoneal macrophages were seeded in a 6-well plate overnight in regular growth media. The cells were stimulated with MCP-1 (10 ng/ml R&D systems) for 5 minutes with or without a pretreatment with mouse recombinant netrin-1 (250 ng/ml, R&D Systems) for 30 minutes. At the end of stimulation the cells were lysed and Rac1-GTP levels were measured using Rac1 Activation Assay (Cell Biolabs) according manufacturer's instructions.
# BMDM [10] = assay: qRT-PCR of BMDM (palmitate, cytokines, adipocyte conditioned media); assay type: cell-based, mouse; conditions: direct addition of cytokine
# Protocol: Real-time Quantitative RT-PCR Analysis RNA (0.5-1 μg) was reverse transcribed using iScript™ cDNA Synthesis Kit (Biorad) and RT-PCR analysis was conducted using kapa SYBR green Supermix (kappa syber) and a Mastercycler Realplex (Eppendorf) the primers used are listed. Fold change in mRNA expression was calculated using the comparative cycle method (ΔΔCt).
# Cell culture. Primary bone marrow derived macrophage (BMDM) was prepared by flushing the bone marrow of the tibia and femur of 6-8 week old C57/B6 mice. The cells were grown in DMEM supplemented with 15% L929-conditioned media, 10% FBS and 1% penicillin/streptomycin for 7 days. BMDM were stimulated 250 pM palmitate conjugated with BSA or BSA as a control for 24 hours, or TNFα (10 ng/ml, 410-MT-010; R&D systems), IL-6 (40 nglml, 406-ML-005; R&D systems) and IL-4 (1 Onglml, 404-ML-010; R&D systems) for 24 h. In some assays, differentiated BMDM were treated with conditioned media from 3T3-L1 adipocytes differentiated as described (Lin, et al., J Biol Chem, 2005; 280:4617-4626) and treated with 250 pM palmitate conjugated with BSA or BSA for 24 hours. In certain experiments, anti-TNFα (0.4 μg/ml, AF-410-NA, R&D systems) or anti-IL-6 (0.025 μg/ml, MAB406; R&D systems) blocking antibody or IgG control (Normal Goat IgG: AB-108-C, Rat IgG1: MAB005; R&D systems) was added to conditioned media. Peritoneal macrophages were isolated as described (van Gils, et al., Nat Immunol, 2012; 13:136-143). Mice were injected intraperitoneally with 1 ml of 3% (wt/vol) thioglycolate to elicit sterile sterile peritonitis with macrophage numbers peaking on day 4. Cells were collected by lavage and used for migration assays.
# Palmitate-BSA preparation. Sodium palmitate (P9767; Sigma Aldrich) was dissolved in sterile water in to make a 100-mM solution by alternating heating and vortexing until the palmitate was dissolved. Thu occurred once the solution reached 70 C. […]
# BMDM [11] = assay: BMDM migration towards MCP-1 (xCelligence); assay type: cell-based, mouse; conditions: treatment with Unc5b-FC
# Protocol: (§4) Macrophage chemotaxis was measured using the Real-Time Cell Invasion and Migration xCelligence Assay System with monitoring every 3 min (Roche Applied Science). BMDM migration towards MCP-1 (100 ng/ml; R&D Systems) was measured in the presence or absence of oxLDL (50 μg/ml) and/or recombinant rat UNC5b-Fc chimera (1006-UN; R&D Systems) to block the effects of netrin-1. In a subset of experiments, cells were pre-treated with 0.1 mmol/L CoCl2 for 1 h prior to migration. J774 macrophage migration was carried out in the presence or absence of UNC5b-Fc chimera. Results of chemotaxis assays are representative of at least three independent experiments performed on triplicate samples.
# J774Hif macrophages = assay: J774 macrophage migration (xCelligence); assay type: cell-based, mouse; conditions: treated with Unc5b-FC, no exogenous chemokine
# Protocol: as §4
# peritoneal macrophages = assay: Migration of palmitate-treated peritoneal macrophages to CCL19; assay type: cell-based, mouse; conditions: addition of Unc5b-FC
# Protocol: as §1, with “media. Peritoneal macrophages were isolated as described (van Gils, et al., Nat Immunol, 2012; 13:136-143).” for “media.”
# Migration. The migration of ATM or peritoneal macrophages to CCL19 (500 ng/ml; R&D Systems) was assessed by the xCelligence Real-time Cell Invasion and Migration system (ACEA biosciences Inc) that monitored chemotaxis every 5 minutes for over 6 h. […]
molecule,measurement,setting,value
Cc1ccc(S(=O)(=O)/C=C/C#N)cc1 [BAY 11-7082],oxLDL induction of netrin-1 promoter activity,[1],inhibited
CC(C)(C)c1ccc(S(=O)(=O)/C=C/C#N)cc1 [BAY 11-7085],palmitate-induced secretion of netrin-1 by BMDM,BMDM [2],"inhibited, in part"
same,palmitate-induced Unc5b-promoter luciferase activity,[3],"inhibited, in part"
same,palmitate-induced Ntn1-promoter luciferase activity,[4],"inhibited, in part"
"COC(=O)CNC(=O)C(=O)OC [DMOG, dimethyloxalylglycine]",Ntn1 promoter activity,[5]; HEK293 cells,potently induced
COC(=O)c1ccc(O)c(NC(=O)COc2ccc(C34CC5CC(CC(C5)C3)C4)cc2)c1 [HIF-1α inhibitor],oxLDL-induced increase in Unc5b promoter activity,[6],abrogated
same,oxLDL-induced Unc5b mRNA in BMDM,BMDMs [7]; HIF-1α inhibitor,required HIF-1α activity
same,"Unc5b mRNA in response to low oxygen concentration, CoCl2 or DMOG",BMDMs [7]; pre-treated with HIF-1α inhibitor,no upregulation of Unc5b
same,"increase in Ntn1 mRNA under hypoxia, CoCl2, DMOG or oxLDL",BMDMs [7]; pretreatment with HIF-1α inhibitor,blocked
same,oxLDL- and DMOG-induced increase in Ntn1 promoter activity,[5]; presence or absence of HIF-1α inhibitor,dependent on HIF-1α activity
same,protection from apoptosis (TUNEL) under hypoxic conditions,"BMDMs [8]; growth-factor deprived BMDM, HIF-1α inhibitor",reversed
Cn1c(=O)c2nc(-c3ccccc3)[nH]c2n(C)c1=O [inhibitor of the A2B adenosine receptor],inhibitory effect of netrin-1 on CCL19-induced migration,[9],no change
MCP-1: chemokine MCP-1 (R&D Systems),levels of activated Rac1,Rac1,approximately 3 fold
TNFα,Ntn1 mRNA in BMDMs,BMDM [10],increased Ntn1 mRNA
"UNC5b-Fc: recombinant rat UNC5b-Fc chimera (cat #1006-UN, R&D Systems) to block the effects of netrin-1",CoCl2 impairment of macrophage migration to MCP-1,BMDM [11],reversed this effect
same,migration of J774-HIF cells,J774Hif macrophages,comparable to control J774 macrophages
same,inhibition of migration to CCL19 by conditioned medium from oxLDL-treated macrophages,[9]; addition of recombinant UNC5b-Fc,reversed
same,inhibitory effect of netrin-1 on CCL19-induced migration,[9],reversed the inhibitory effect of netrin-1
same,TUNEL and active caspase-3 staining under hypoxic conditions,"BMDMs [8]; growth factor deprived macrophages, Unc5b-FC",increased TUNEL and active caspase-3 staining similar to normoxic controls
same,migration of palmitate-treated macrophages to CCL19,peritoneal macrophages,restored
